28 molecules from patent US9902725B2, “Heterocyclic derivatives as RORgamma modulators” (GENFIT, priority 2014, dated 2018) can be followed below.

In this test the target is T1, RORγt ligand-binding domain (RORγt-LBD) (Homo sapiens, UniProt P51449).
T1 construct: 20 nM recombinantly expressed RORγ-LBD fused to GST
T1 sequence (P51449 269-508 limits assumed): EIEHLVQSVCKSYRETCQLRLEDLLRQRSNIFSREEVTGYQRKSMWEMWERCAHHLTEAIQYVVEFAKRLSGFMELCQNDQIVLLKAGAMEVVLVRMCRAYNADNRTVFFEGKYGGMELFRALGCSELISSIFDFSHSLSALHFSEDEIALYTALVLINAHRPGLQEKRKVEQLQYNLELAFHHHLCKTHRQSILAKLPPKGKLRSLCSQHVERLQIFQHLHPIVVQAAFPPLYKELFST
Nature of the test: Time-resolved FRET (TR-FRET) RORγt coactivator assay. Format: biochemical. Particulars: GST-RORγ-LBD, biotinylated RIP140 peptide, coactivator displacement. The source says: Time-resolved FRET (TR-FRET) RORγt coactivator assay was used to identify RORγ modulator compounds with ligand-dependent coactivator displacement. The assay uses a d2-labeled anti-GST antibody, synthetic N-terminally biotinylated peptide which is derived from nuclear receptor coactivator protein RIP140, and a RORγt ligand-binding domain (RORγt-LBD) that is tagged with glutathione-S-transferase (GST). The influence of compounds on the RORγ-peptide interaction relies on the binding dependent energy transfer from a donor to an acceptor fluorophore attached to the binding partner of interest. […] For reduction of background from compound fluorescence, TR-FRET method makes use of generic fluorophore labels and time resolved detection.
The assays were done in a final volume of 20 μl in a 384 well plate in a CHAPS buffer (2 mM CHAPS; 1 mM DTT, 2 mM EDTA; 0.1% BSA), containing 20 nM recombinantly expressed RORγ-LBD fused to GST, 30 nM N-terminally biotinylated peptide, 1 nM streptavidin-terbium conjugate and 20 nM d2 labeled-anti-GST. Test compounds were diluted using 10 mM stock solution. The range of the final compound concentrations used in this test was from 0.3 nM to 30 μM (logarithmic scale). DMSO content of the samples was kept at 1%. The assay was equilibrated for 2 hours in the dark at room temperature in 384 well plates (Falcon). The signal was detected by an Ultra384 reader (TECAN). The results were visualized by plotting the ratio between the emitted light at 665 nm and 620 nm. A basal level of RORγ-peptide formation is observed in the absence of added compound. Compounds that promote coactivator displacement induce a concentration-dependent decrease in time-resolved fluorescent signal. Data were collected and analyzed using GraphPad Prism software (GraphPad Software V5.02, San Diego Calif. USA). IC50 in μM and Emax in % were reported for each compound.
A general note: Time-resolved FRET reads energy transfer from a long-lived donor to a nearby acceptor.
By IC50 is commonly meant the point on the concentration scale where inhibition reaches its midpoint. A lower IC50 goes with greater potency in that assay. Regarding `CC(C)CC(NC(=O)Cc1ccc2[nH]cc(CCC(=O)OC(C)(C)C)c2c1)c1ccccc1OC(C)C` (stereo not shown) [Cpd. 240, tert-butyl 3-{5-[({3-methyl-1-[2-(propan-2-yloxy)phenyl]butyl}carbamoyl)methyl]-1H-indol-3-yl}propanoate], the IC50 is less than 1000 nM.

As for `CCOc1ccc(C(NC(=O)Cc2ccc3[nH]cc(CCC(=O)OC(C)(C)C)c3c2)c2ccccc2)c(OCC)c1` (stereo not shown) [Cpd. 246, tert-butyl 3-[5-({[(2,4-diethoxyphenyl)(phenyl)methyl]carbamoyl}methyl)-1H-indol-3-yl]propanoate], the IC50 is less than 1000 nM.

`Cc1ccc(C(CC(C)C)NC(=O)Cc2ccc3[nH]cc(CCC(=O)OC(C)(C)C)c3c2)c(OC(C)C)c1` (stereo not shown) [Cpd. 248, tert-butyl 3-{5-[({3-methyl-1-[4-methyl-2-(propan-2-yloxy)phenyl]butyl}carbamoyl)methyl]-1H-indol-3-yl}propanoate] returned an IC50 of 1000 to 10000 nM.

`Cc1ccc(C(NC(=O)Cc2ccc3[nH]cc(CCC(=O)OC(C)(C)C)c3c2)c2ccccc2)c(N2CCCCCC2)c1` (stereo not shown) [Cpd. 250, tert-butyl 3-{5-[({[2-(azepan-1-yl)-4-methylphenyl](phenyl)methyl}carbamoyl)methyl]-1H-indol-3-yl}propanoate] yielded an IC50 of less than 1000 nM.

`Cc1cc(C(NC(=O)Cc2ccc3[nH]cc(CCC(=O)OC(C)(C)C)c3c2)c2ccccc2N2CCCCC2)oc1C` (stereo not shown) [Cpd. 252, tert-butyl 3-[5-({[(4,5-dimethylfuran-2-yl)[2-(piperidin-1-yl)phenyl]methyl]carbamoyl}methyl)-1H-indol-3-yl]propanoate] yielded a concentration for half-maximal inhibition (IC50) of 1000 to 10000 nM.

Molecule `Cc1ccc(C(NC(=O)Cc2ccc3[nH]cc(CCC(=O)OC(C)(C)C)c3c2)c2ccccc2OC(C)C)o1` (stereo not shown) [Cpd. 254, tert-butyl 3-[5-({[(5-methylfuran-2-yl)[2-(propan-2-yloxy)phenyl]methyl]carbamoyl}methyl)-1H-indol-3-yl]propanoate] gave an IC50 of less than 1000 nM.

As for `COC(=O)Cc1c[nH]c2ccc(CC(=O)NC(c3ncccn3)c3ccc(C)cc3Br)cc12` (stereo not shown) [Cpd. 256, methyl 2-[5-({[(2-bromo-4-methylphenyl)(pyrimidin-2-yl)methyl]carbamoyl}methyl)-1H-indol-3-yl]acetate], the IC50 was 1000 to 10000 nM.

In turn, `C#CCC(NC(=O)Cc1ccc2[nH]cc(CCC(=O)OC(C)(C)C)c2c1)c1ccccc1N1CCCCC1` (stereo not shown) [Cpd. 260, tert-butyl 3-{5-[({1-[2-(piperidin-1-yl)phenyl]but-3-yn-1-yl}carbamoyl)methyl]-1H-indol-3-yl}propanoate] showed an IC50 of 1000 to 10000 nM.

`Cc1ccc(Cl)c(C(NC(=O)Cc2ccc3[nH]cc(CCC(=O)O)c3c2)c2ccccc2)c1` (stereo not shown) [compound 42, 3-[5-({[(2-chloro-5-methylphenyl)(phenyl)methyl]carbamoyl}methyl)-1H-indol-3-yl]propanoic acid]: the IC50 was less than 1000 nM.

As to `Cc1cc(Br)ccc1C(NC(=O)Cc1ccc2[nH]cc(CCC(=O)O)c2c1)c1ccccc1` (stereo not shown) [compound 44, 3-[5-({[(4-bromo-2-methylphenyl)(phenyl)methyl]carbamoyl}methyl)-1H-indol-3-yl]propanoic acid], the IC50 was less than 1000 nM.

Molecule `Cc1cc(F)ccc1C(NC(=O)Cc1ccc2[nH]cc(CCC(=O)O)c2c1)c1ccccc1` (stereo not shown) [compound 46, 3-[5-({[(4-fluoro-2-methylphenyl)(phenyl)methyl]carbamoyl}methyl)-1H-indol-3-yl]propanoic acid] registered an IC50 of less than 1000 nM.

In turn, `Nc1ccccc1C(NC(=O)Cc1ccc2[nH]cc(CCC(=O)O)c2c1)c1ccccc1` (stereo not shown) [compound 52, 3-[5-({[(2-aminophenyl)(phenyl)methyl]carbamoyl}methyl)-1H-indol-3-yl]propanoic acid] yielded an IC50 of 1000 to 10000 nM.

As to `CN(C)c1ccccc1C(NC(=O)Cc1ccc2[nH]cc(CCC(=O)O)c2c1)c1ccccc1` (stereo not shown) [compound 54, 3-{5-[({[2-(dimethylamino)phenyl](phenyl)methyl}carbamoyl)methyl]-1H-indol-3-yl}propanoic acid], the IC50 is less than 1000 nM.

Consider `O=C(O)CCc1c[nH]c2ccc(NC(=O)NC(c3ccccc3)c3ccccc3N3CCCCC3)cc12` (stereo not shown) [compound 56, 3-{5-[({phenyl[2-(piperidin-1-yl)phenyl]methyl}carbamoyl)amino]-1H-indol-3-yl}propanoic acid], for which the IC50 is less than 1000 nM.

`CC(C)CC(NC(=O)Cc1ccc2[nH]cc(CCC(=O)O)c2c1)c1ccccc1N1CCOCC1` (stereo not shown) [compound 58, 3-{5-[({3-methyl-1-[2-(morpholin-4-yl)phenyl]butyl}carbamoyl)methyl]-1H-indol-3-yl}propanoic acid] gave an IC50 of less than 1000 nM.

Turning to `NC(=O)c1ccc(C(NC(=O)Cc2ccc3[nH]cc(CCC(=O)O)c3c2)c2ccccc2)c(N2CCCC2)c1` (stereo not shown) [compound 63, 3-{5-[({[4-carbamoyl-2-(pyrrolidin-1-yl)phenyl](phenyl)methyl}carbamoyl)methyl]-1H-indol-3-yl}propanoic acid], the IC50 lay in the range of 1000 to 10000 nM.

In the case of `O=C(O)Cc1c[nH]c2ccc(CC(=O)NC(c3ccccc3)c3ccc(Br)cc3N3CCCC3)cc12` (stereo not shown) [compound 67, 2-{5-[({[4-bromo-2-(pyrrolidin-1-yl)phenyl](phenyl)methyl}carbamoyl)methyl]-1H-indol-3-yl}acetic acid], the IC50 is less than 1000 nM.

Consider `O=C(O)Cc1c[nH]c2ccc(NC(=O)NC(c3ccccc3)c3ccccc3N3CCCCC3)cc12` (stereo not shown) [compound 69, 2-{5-[({phenyl[2-(piperidin-1-yl)phenyl]methyl}carbamoyl)amino]-1H-indol-3-yl}acetic acid], for which the IC50 was 1000 to 10000 nM.

In turn, `CN(C)c1ccccc1C(NC(=O)Cc1ccc2[nH]cc(CC(=O)O)c2c1)c1ccccc1` (stereo not shown) [compound 71, 2-{5-[({[2-(dimethylamino)phenyl](phenyl)methyl}carbamoyl)methyl]-1H-indol-3-yl}acetic acid] registered an IC50 of 1000 to 10000 nM.

Regarding `O=C(O)Cc1c[nH]c2ccc(CC(=O)NC(c3ccccc3)c3ccccc3N3CCCC3)cc12` (stereo not shown) [compound 73, 2-{5-[({phenyl[2-(pyrrolidin-1-yl)phenyl]methyl}carbamoyl)methyl]-1H-indol-3-yl}acetic acid], the IC50 is 1000 to 10000 nM.

The molecule `O=C(O)Cc1c[nH]c2ccc(CC(=O)NC(c3ccccc3)c3ccccc3N3CCCCCC3)cc12` (stereo not shown) [compound 75, 2-{5-[({[2-(azepan-1-yl)phenyl](phenyl)methyl}carbamoyl)methyl]-1H-indol-3-yl}acetic acid] gave an IC50 of 1000 to 10000 nM.

As for `O=C(O)CCc1c[nH]c2ccc(CC(=O)NC(c3ccccc3)c3ccccc3N3CCCC3)cc12` (stereo not shown) [compound 79, 3-{5-[({phenyl[2-(pyrrolidin-1-yl)phenyl]methyl}carbamoyl)methyl]-1H-indol-3-yl}propanoic acid], the IC50 is less than 1000 nM.

Molecule `Cc1ccc(C(NC(=O)Cc2ccc3[nH]cc(CCC(=O)O)c3c2)c2ccccc2)c(N2CCOCC2)c1` (stereo not shown) [compound 81, 3-{5-[({[4-methyl-2-(morpholin-4-yl)phenyl](phenyl)methyl}carbamoyl)methyl]-1H-indol-3-yl}propanoic acid] yielded an IC50 of less than 1000 nM.

`COc1ccc(C(NC(=O)Cc2ccc3[nH]cc(CCC(=O)O)c3c2)c2ccccc2)c(C)c1` (stereo not shown) [compound 83, 3-[5-({[(4-methoxy-2-methylphenyl)(phenyl)methyl]carbamoyl}methyl)-1H-indol-3-yl]propanoic acid] returned an IC50 of less than 1000 nM.

As for `O=C(O)Cc1c[nH]c2ccc(CC(=O)NC(c3ccccc3)c3ccc(Cl)cc3N3CCCC3)cc12` (stereo not shown) [compound 85, 2-{5-[({[4-chloro-2-(pyrrolidin-1-yl)phenyl](phenyl)methyl}carbamoyl)methyl]-1H-indol-3-yl}acetic acid], the 50% inhibitory concentration (IC50) was less than 1000 nM.

As to `O=C(O)Cc1c[nH]c2ccc(CC(=O)NC(c3ccccc3)c3ccc(C(F)(F)F)cc3N3CCCC3)cc12` (stereo not shown) [compound 89, 2-{5-[({phenyl[2-(pyrrolidin-1-yl)-4-(trifluoromethyl)phenyl]methyl}carbamoyl)methyl]-1H-indol-3-yl}acetic acid], the IC50 is less than 1000 nM.

In turn, `O=C(O)CCc1c[nH]c2ccc(CC(=O)NC(c3ccccc3)c3ccc(F)cc3N3CCCC3)cc12` (stereo not shown) [compound 93, 3-{5-[({[4-fluoro-2-(pyrrolidin-1-yl)phenyl](phenyl)methyl}carbamoyl)methyl]-1H-indol-3-yl}propanoic acid] returned an IC50 of less than 1000 nM.

`O=C(O)CCc1c[nH]c2ncc(NC(=O)NC(c3ccccc3)c3ccccc3N3CCCCC3)cc12` (stereo not shown) [compound 95, 3-{5-[({phenyl[2-(piperidin-1-yl)phenyl]methyl}carbamoyl)amino]-1H-pyrrolo[2,3-b]pyridin-3-yl}propanoic acid] returned an IC50 of 1000 to 10000 nM.
